Test results taken from ChEMBL document CHEMBL1201862, “PubChem BioAssay data set” (2004).
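Interpolation was linear, between the two tested concentrations surrounding the appropriate level; five concentrations were tested over 48 hours in 96-well plates. Abbreviation: GI50, concentration required for 50% inhibition of growth.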 Activity calls are given as the source filed them. Cut-off read from the data, not from the text of the source: active = GI50 up to about 1.1 µM and inactive = higher.

Columns and labels:
Experiment in all cases: inhibition of tumour cell growth, NCI panel, 48 h
[1] = test system: T47D
[2] = test system: HL-60
[3] = test system: Hs-578T
[4] = test system: OVCAR-5
[5] = test system: SK-MEL-5
[6] = test system: SN12C
[7] = test system: KM12
[8] = test system: MOLT-4
[9] = test system: DU-145
[10] = test system: EKVX
[11] = test system: NCI/ADR-RES
[12] = test system: SNB-19
[13] = test system: CCRF-CEM
[14] = test system: A549
[15] = test system: HCT-116
[16] = test system: MDA-MB-231
[17] = test system: A498
[18] = test system: OVCAR-8
[19] = test system: ACHN
[20] = test system: IGROV-1
[21] = test system: U-251
[22] = test system: HOP-92
[23] = test system: LOX IMVI
[24] = test system: SK-MEL-2
[25] = test system: TK-10
[26] = test system: Malme-3M
[27] = test system: UACC-257
[28] = test system: HCT-15
[29] = test system: HCC 2998
[30] = test system: SNB-75
[31] = test system: SF-539
[32] = test system: K562
[33] = test system: PC-3
[34] = test system: SF-268
[35] = test system: UACC-62
[36] = test system: M14
[37] = test system: MDA-N
[38] = test system: HOP-62
[39] = test system: RPMI-8226
[40] = test system: SF-295
[41] = test system: COLO 205
[42] = test system: RXF 393
[43] = test system: MDA-MB-435
[44] = test system: SK-MEL-28
[45] = test system: NCI-H23
[46] = test system: UO-31
[47] = test system: HT-29
[48] = test system: NCI-H522
[49] = test system: NCI-H460
[50] = test system: NCI-H226
[51] = test system: CAKI-1
[52] = test system: BT-549
[53] = test system: 786-0
[54] = test system: SK-OV-3
[55] = test system: MCF7
[56] = test system: OVCAR-3
[57] = test system: OVCAR-4
[58] = test system: SW-620
[59] = test system: SR

CCc1c(Cl)c(C)cc(O)c1Cl
GI50 [1]: 26.8 µM (inactive) | GI50 [2]: 18.3 µM (inactive) | GI50 [3]: 25.7 µM (inactive) | GI50 [4]: > 100 µM (inactive) | GI50 [5]: 15.3 µM (inactive) | GI50 [6]: 16.7 µM (inactive) | GI50 [7]: 22.6 µM (inactive) | GI50 [8]: 27.4 µM (inactive) | GI50 [9]: > 100 µM (inactive) | GI50 [10]: 36.2 µM (inactive) | GI50 [11]: 45.2 µM (inactive) | GI50 [12]: 38.7 µM (inactive) | GI50 [13]: 25.7 µM (inactive) | GI50 [14]: 44.4 µM (inactive) | GI50 [15]: 33.5 µM (inactive) | GI50 [16]: 40.7 µM (inactive) | GI50 [17]: 18.8 µM (inactive) | GI50 [18]: 44.3 µM (inactive) | GI50 [19]: 22.1 µM (inactive) | GI50 [20]: 51.1 µM (inactive) | GI50 [21]: 15.6 µM (inactive) | GI50 [22]: 23.2 µM (inactive) | GI50 [23]: 23.8 µM (inactive) | GI50 [24]: 20.8 µM (inactive) | GI50 [25]: > 100 µM (inactive) | GI50 [26]: 30.1 µM (inactive) | GI50 [27]: 29.6 µM (inactive) | GI50 [28]: 17.8 µM | GI50 [29]: 1.71 µM (inactive) | GI50 [30]: 56.8 µM (inactive) | GI50 [31]: 23 µM (inactive) | GI50 [32]: 33.7 µM (inactive) | GI50 [33]: 19.6 µM (inactive) | GI50 [34]: 53.8 µM (inactive) | GI50 [35]: 32.6 µM (inactive) | GI50 [36]: 34.7 µM (inactive) | GI50 [37]: 19.4 µM (inactive) | GI50 [38]: > 100 µM (inactive) | GI50 [39]: 24.1 µM (inactive) | GI50 [40]: 33.1 µM (inactive) | GI50 [41]: 43.7 µM (inactive) | GI50 [42]: 23.4 µM (inactive) | GI50 [43]: 35.6 µM (inactive) | GI50 [44]: 58.3 µM (inactive) | GI50 [45]: 34.8 µM (inactive) | GI50 [46]: 23.7 µM (inactive) | GI50 [47]: 27.5 µM (inactive) | GI50 [48]: 30.7 µM (inactive) | GI50 [49]: 32.7 µM (inactive) | GI50 [50]: 20.9 µM (inactive) | GI50 [51]: 74.1 µM (inactive) | GI50 [52]: 16.6 µM (inactive) | GI50 [53]: 38.2 µM (inactive) | GI50 [54]: > 100 µM (inactive) | GI50 [55]: 32 µM (inactive) | GI50 [56]: 52 µM (inactive) | GI50 [57]: 34.1 µM (inactive) | GI50 [58]: 20.6 µM (inactive)

CC(=O)OCC1OC(On2ccccc2=S)C(OC(C)=O)C(OC(C)=O)C1OC(C)=O (stereo unspecified)
GI50 [1]: 87.1 µM (inactive) | GI50 [2]: 1.55 µM (inactive) | GI50 [3]: > 100 µM (inactive) | GI50 [4]: > 100 µM (inactive) | GI50 [5]: > 100 µM (inactive) | GI50 [6]: > 100 µM (inactive) | GI50 [7]: > 100 µM (inactive) | GI50 [8]: 33.9 µM (inactive) | GI50 [9]: > 100 µM (inactive) | GI50 [10]: > 100 µM (inactive) | GI50 [11]: > 100 µM (inactive) | GI50 [12]: > 100 µM (inactive) | GI50 [13]: 0.785 µM (active) | GI50 [14]: > 100 µM (inactive) | GI50 [15]: > 100 µM (inactive) | GI50 [16]: > 100 µM (inactive) | GI50 [17]: > 100 µM (inactive) | GI50 [18]: > 100 µM (inactive) | GI50 [19]: > 100 µM (inactive) | GI50 [20]: > 100 µM (inactive) | GI50 [21]: > 100 µM (inactive) | GI50 [22]: > 100 µM (inactive) | GI50 [23]: > 100 µM (inactive) | GI50 [24]: > 100 µM (inactive) | GI50 [25]: > 100 µM (inactive) | GI50 [26]: > 100 µM (inactive) | GI50 [27]: > 100 µM (inactive) | GI50 [28]: > 100 µM | GI50 [29]: > 100 µM (inactive) | GI50 [30]: > 100 µM (inactive) | GI50 [31]: > 100 µM (inactive) | GI50 [32]: > 100 µM (inactive) | GI50 [33]: 69.2 µM (inactive) | GI50 [34]: > 100 µM (inactive) | GI50 [35]: > 100 µM (inactive) | GI50 [36]: > 100 µM (inactive) | GI50 [37]: > 100 µM (inactive) | GI50 [38]: > 100 µM (inactive) | GI50 [40]: > 100 µM (inactive) | GI50 [41]: 81.5 µM (inactive) | GI50 [42]: > 100 µM (inactive) | GI50 [43]: > 100 µM (inactive) | GI50 [44]: > 100 µM (inactive) | GI50 [45]: > 100 µM (inactive) | GI50 [46]: > 100 µM (inactive) | GI50 [47]: 78.9 µM (inactive) | GI50 [48]: 49.7 µM (inactive) | GI50 [49]: > 100 µM (inactive) | GI50 [51]: > 100 µM (inactive) | GI50 [52]: > 100 µM (inactive) | GI50 [53]: > 100 µM (inactive) | GI50 [54]: > 100 µM (inactive) | GI50 [55]: > 100 µM (inactive) | GI50 [56]: > 100 µM (inactive) | GI50 [57]: > 100 µM (inactive) | GI50 [58]: 36.6 µM (inactive)

O=[N+]([O-])c1cc2[nH]nnc2c2nonc12
GI50 [1]: > 100 µM (inactive) | GI50 [2]: 5.45 µM (inactive) | GI50 [3]: 17.4 µM (inactive) | GI50 [4]: 29 µM (inactive) | GI50 [5]: 11.9 µM (inactive) | GI50 [6]: 41.5 µM (inactive) | GI50 [7]: 33 µM (inactive) | GI50 [8]: 6.18 µM (inactive) | GI50 [9]: 33.3 µM (inactive) | GI50 [10]: 65.8 µM (inactive) | GI50 [11]: 48.3 µM (inactive) | GI50 [12]: 30.7 µM (inactive) | GI50 [13]: 14.4 µM (inactive) | GI50 [14]: 61.5 µM (inactive) | GI50 [15]: 20.5 µM (inactive) | GI50 [59]: 6.08 µM (inactive) | GI50 [16]: 32.7 µM (inactive) | GI50 [18]: 21.1 µM (inactive) | GI50 [19]: 23.4 µM (inactive) | GI50 [20]: 51.9 µM (inactive) | GI50 [21]: 28.4 µM (inactive) | GI50 [22]: 36.5 µM (inactive) | GI50 [23]: 20.1 µM (inactive) | GI50 [24]: 40.7 µM (inactive) | GI50 [25]: 40.4 µM (inactive) | GI50 [26]: 35.2 µM (inactive) | GI50 [27]: 22.9 µM (inactive) | GI50 [28]: 29.2 µM | GI50 [29]: 17.9 µM (inactive) | GI50 [30]: 38.5 µM (inactive) | GI50 [31]: 22.8 µM (inactive) | GI50 [32]: 22.8 µM (inactive) | GI50 [33]: 49.4 µM (inactive) | GI50 [34]: 59 µM (inactive) | GI50 [35]: > 10 µM (inactive) | GI50 [36]: 22.4 µM (inactive) | GI50 [37]: 20.6 µM (inactive) | GI50 [38]: 55 µM (inactive) | GI50 [39]: 24 µM (inactive) | GI50 [40]: 31.7 µM (inactive) | GI50 [41]: 17.5 µM (inactive) | GI50 [43]: 13.1 µM (inactive) | GI50 [44]: 38.5 µM (inactive) | GI50 [45]: 26.5 µM (inactive) | GI50 [46]: 17.9 µM (inactive) | GI50 [47]: 29.6 µM (inactive) | GI50 [48]: 14.3 µM (inactive) | GI50 [49]: 35.1 µM (inactive) | GI50 [50]: 19.3 µM (inactive) | GI50 [51]: 29.7 µM (inactive) | GI50 [52]: 11.1 µM (inactive) | GI50 [53]: 38.5 µM (inactive) | GI50 [54]: 46.8 µM (inactive) | GI50 [55]: 3.24 µM (inactive) | GI50 [56]: 33.5 µM (inactive) | GI50 [57]: 30.1 µM (inactive) | GI50 [58]: 30.7 µM (inactive)
